Patent publication US8703938B2, “Hepatitis C virus inhibitors” (Enanta Pharmaceuticals, Inc., priority 2009, dated 2014)
pEC50: −log10 of the molar value.

Tested on: HCV 1b genotype replicon
Assay: HCV genotype-1b replicon assay (qRT-PCR or luciferase)
Type: cell-based
Settings: Hepatitis C virus, read-out: Genotype-1b replicon EC50 Range
Excerpt: HCV replicon cell lines (kindly provided by R. Bartenschlager) isolated from colonies as described by Lohman et. al. (Lohman et al. (1999) Science 285: 110-113, expressly incorporated by reference in its entirety) and used for all experiments. The HCV replicon has the nucleic acid sequence set forth in EMBL Accession No.: AJ242651, the coding sequence of which is from nucleotides 1801 to 8406.
The coding sequence of the published HCV replicon was synthesized and subsequently assembled in a modified plasmid pBR322 (Promega, Madison, Wis.) using standard molecular biology techniques. […]
EC50 values of single agent compounds and combinations were determined by HCV RNA detection using quantitative RT-PCR, according to the manufacturer's instructions, with a TAQMAN® One-Step RT-PCR Master Mix Reagents Kit (Cat # AB 4309169, Applied Biosystems) on an ABI Model 7500 thermocycler. The TaqMan primers used for detecting and quantifying HCV RNA were obtained from Integrated DNA Technologies. HCV RNA was normalized to GAPDH RNA levels in drug-treated cells, which was detected and quantified using the Human GAPDH Endogenous Control Mix (Applied Biosystems, AB 4310884E). […] Chemical agent cytotoxicity was evaluated using an MTS assay according to the manufacturer's directions (Promega). […]

Question: `COC(=O)N[C@H](C(=O)N1CCC(C(=O)Nc2ccc(-c3ccc(NC(=O)C4CCN(C(=O)[C@@H](NC(=O)OC)C(C)C)C4)cc3)cc2)C1)C(C)C` (stereo partly shown) [Example 295] was tested. Which pEC50 did it give?
Answer: < 8.00
